Assay results reported in patent US9914724B2, “C-aryl glycosid derivatives, pharmaceutical composition, preparation process and uses thereof” (SHANGHAI DE NOVO PHARMATECH CO. LTD., priority 2014, dated 2018).

Assays:
SGLT-2 = molecular target: T1, SGLT-2 (Homo sapiens, UniProt P31639); assay: [14C]-AMG absorption in stable SGLT2 expressing Flp-in CHO cells (SGLT-2 activity screening assay); assay type: cell-based; conditions: 14C-AMG uptake, 37° C. 1 h, 1% DMSO
T1 sequence (P31639 1-672): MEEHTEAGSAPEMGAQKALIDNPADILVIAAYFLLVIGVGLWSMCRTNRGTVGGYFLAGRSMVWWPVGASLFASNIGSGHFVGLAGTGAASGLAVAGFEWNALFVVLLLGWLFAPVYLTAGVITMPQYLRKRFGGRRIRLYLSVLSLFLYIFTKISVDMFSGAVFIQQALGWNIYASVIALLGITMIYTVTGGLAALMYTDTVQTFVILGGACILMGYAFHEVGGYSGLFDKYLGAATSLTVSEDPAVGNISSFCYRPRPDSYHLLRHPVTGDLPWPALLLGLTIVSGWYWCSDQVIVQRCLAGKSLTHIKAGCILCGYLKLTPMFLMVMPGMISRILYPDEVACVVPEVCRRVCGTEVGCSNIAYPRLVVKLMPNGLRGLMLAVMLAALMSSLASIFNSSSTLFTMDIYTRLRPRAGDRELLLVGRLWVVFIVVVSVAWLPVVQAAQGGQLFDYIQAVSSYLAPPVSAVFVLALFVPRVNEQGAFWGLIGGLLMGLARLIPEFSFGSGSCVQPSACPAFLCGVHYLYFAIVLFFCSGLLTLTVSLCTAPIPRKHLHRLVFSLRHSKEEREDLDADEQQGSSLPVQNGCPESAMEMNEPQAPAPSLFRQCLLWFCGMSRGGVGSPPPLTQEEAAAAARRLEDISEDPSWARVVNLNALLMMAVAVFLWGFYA
Excerpt: (§1) Example 1: [^14C]-AMG Absorption in Stable SGLT1 and SGLT2 Expressing Flp-in CHO Cells (SGLT-1 and SGLT-2 Activity Screening Assay)
(§2) SGLT-1 and SGLT-2 cDNA clones were purchased from OriGene. After sequencing verification, the expression vectors were constructed based on pcDNA5/FRT using conventional molecular biology method. The expression vector was transfected into Flp-in CHO cells using Lipofectamin 2000. The transfected cells were subject hygromycin selection. The single clones of cells were selected by serial dilutions 4-5 weeks after transfection. The expression of SGLT-1 ? SGLT-2 were confirmed by RT-PCR and functional assay and cell line with strong signal was selected for subsequent study.
(§3) Culture of stable SGLT-1 and SGLT-2 expressing Flp-in CHO cell line: the culture media contain F12 medium (Invitrogen), 500 μg/ml hygromycin (Calbiochem) and 10% FBS (Invitrogen). Upon 80% confluency, the cells in the T75 flask were washed three times with PBS (Invitrogen), and 5 mL of Trpsin-EDTA solution (Invitrogen) was then added. The flask was gently rotated so that all the cells were submerged in the digestion solution. After the cells detach, 10 mL of culture medium was added and single cell suspension was prepared by pipetting up and down. The cell concentration was adjusted to 3×10^5/mL, 100 μL/well was added onto clear bottom 96-well plate (Corning).
(§4) The cells were ready for absorption assay once they attached after overnight culture. 12 h after cell plating, the cells were washed once with 150 μL/well absorption solution KRH-NMG (120 mM NMG, 4.7 mM KCl, 1.2 mM MgCl2, 2.2 mM CaCl2, 10 mM HEPES, pH 7.4 1 mM Tris). The solution was then removed from the well. 2.5 μCi/mL ^14C labeled AMG (PerkinElmer) Buffer KRH-Na+ (120 mM NaCl, 4.7 mM KCl, 1.2 mM MgCl2, 2.2 mM CaCl2, 10 mM HEPES, pH 7.4 1 mM Tris) was added at […] after washing with Buffer KRH-Na+ and KRH-NMG. The corresponding compound I was immediately added at 5 μL/well, ensuring the concentration of Dimethyl Sulfoxide was 1% (v/v). The plate was subsequently incubated at 37° C. for 1 h, after which 150 μL of ice cold wash buffer (120 mM NaCl, 4.7 mM KCl, 1.2 mM MgCl2, 2.2 mM CaCl2, 10 mM HEPES, 0.5 mM phlorizin, pH 7.4 1 mM Tris) was immediately added to terminate the reaction. Each well was washed three times with wash buffer and finally the solution was removed. Caution was taken to avoid cell detachment during the procedure. 20 μL/well of Lysis Buffer (0.1 mM NaOH) was added, the plate was vortexed at 900 rpm for 5 min. 80 μL/well of scintillation solution Microsint40 was added, and vortexed at 900 rpm for 5 min. The radioactivity was assayed using MicroBeta Trilux (PerkinElmer). The data was analyzed and IC50 of the compounds was calculated using XL-fit software.

C57/BL6 mice = assay: Urinary glucose excretion test in C57/BL6 mice; assay type: in vivo; conditions: male C57/BL6 mice, 10 mg/Kg oral; for activity in urinary glucose excretion compared with compound A (Empagliflozin): 24 h urine, statement on Table 2; for Glucose (excreted urine glucose): then 5 g/Kg glucose, total urine in 24 h, mean of 6 mice
Protocol: Example 2: Urinary Glucose Excretion Test in C57/BL6 Mice
Adult male C57/BL6 mice with body weight over 20 g (Shanghai LSK Laboratory Animal Ltd) were orally dosed with test compound I (10 mg/Kg) after which the animals were fed with 5 g/Kg glucose. The animals were housed in metabolic cages to collect total urine in 24 h. The cage was washed with 5 mL of normal saline. Water and food were provided to the mice ad libitum during the 24 h period. The urine samples were immediately frozen after collection, and the glucose levels were then determined. The total amount of excreted urine glucose was calculated based on total amount of urine, and then converted to amount of excreted glucose (mg) per 200 mg body weight in 24 h based on mouse body weight. The result is shown in Table 2 (mean values of 6 mice).

SGLT-1 = molecular target: T2, SGLT-1 (Homo sapiens, UniProt P13866); assay: [14C]-AMG absorption in stable SGLT1 expressing Flp-in CHO cells (SGLT-1 activity screening assay); assay type: cell-based; conditions: 14C-AMG uptake, 37° C. 1 h, 1% DMSO
T2 sequence (P13866 1-664): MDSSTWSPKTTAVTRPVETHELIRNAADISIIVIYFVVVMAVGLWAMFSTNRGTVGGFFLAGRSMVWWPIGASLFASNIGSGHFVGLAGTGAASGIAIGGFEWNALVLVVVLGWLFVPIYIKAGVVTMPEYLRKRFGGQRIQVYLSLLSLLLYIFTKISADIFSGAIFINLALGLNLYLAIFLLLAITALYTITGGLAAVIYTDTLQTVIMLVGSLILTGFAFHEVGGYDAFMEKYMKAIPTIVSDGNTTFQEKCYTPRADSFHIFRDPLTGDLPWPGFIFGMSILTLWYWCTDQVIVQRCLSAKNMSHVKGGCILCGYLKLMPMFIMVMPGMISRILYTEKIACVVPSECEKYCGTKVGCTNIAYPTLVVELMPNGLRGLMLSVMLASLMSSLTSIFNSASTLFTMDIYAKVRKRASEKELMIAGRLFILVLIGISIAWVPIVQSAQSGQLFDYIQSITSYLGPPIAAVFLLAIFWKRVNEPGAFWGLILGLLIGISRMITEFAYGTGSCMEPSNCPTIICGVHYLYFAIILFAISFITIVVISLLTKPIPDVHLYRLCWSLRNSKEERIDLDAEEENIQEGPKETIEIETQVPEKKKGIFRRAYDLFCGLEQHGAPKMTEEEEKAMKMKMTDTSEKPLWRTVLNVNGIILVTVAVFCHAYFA
Excerpt: as §1, §2, §3, §4

SMILES | IC50 (SGLT-2) [nM] | activity in urinary glucose excretion compared with compound A (Empagliflozin) (C57/BL6 mice) | Glucose (excreted urine glucose) (C57/BL6 mice) | IC50 (SGLT-1) [nM]
OC[C@H]1O[C@@H](c2ccc(Cl)c(Cc3ccc(OCc4cc5ccccc5o4)cc3)c2)[C@H](O)[C@@H](O)[C@@H]1O [Compound I-1, (2S,3R,4R,5S,6R)-2-(3-(4-(benzofuran-2-ylmethoxy)benzyl)-4-chlorophenyl)-6-(hydroxymethyl)tetrahydro-2H-pyran-3,4,5-triol] | 7 | significantly more active than compound A | 1646.9 mg/200 mg body weight/24 h | 
OC[C@H]1O[C@@H](c2ccc(Cl)c(Cc3ccc(OCC4OCc5ccccc54)cc3)c2)[C@H](O)[C@@H](O)[C@@H]1O (stereo partly drawn) [Compound I-36, (2S,3R,4R,5S,6R)-2-(4-chloro-3-(4-((1,3-dihydroisobenzofuran-1-yl)methoxy)benzyl)phenyl)-6-(hydroxymethyl)tetrahydro-2H-pyran-3,4,5-triol] | 1 |  | 1723.1 mg/200 mg body weight/24 h | 584
OC[C@H]1O[C@@H](c2ccc(Cl)c(Cc3ccc(OCC4Cc5ccccc5O4)cc3)c2)[C@H](O)[C@@H](O)[C@@H]1O (stereo partly drawn) [Compound I-22, (2S,3R,4R,5S,6R)-2-(4-chloro-3-(4-((2,3-dihydrobenzofuran-2-yl)methoxy)benzyl)phenyl)-6-(hydroxymethyl)tetrahydro-2H-pyran-3,4,5-triol] | 4.1 | significantly more active than compound A | 3106.6 mg/200 mg body weight/24 h | 2100
OC[C@H]1O[C@@H](c2ccc(Cl)c(Cc3ccc(OCC4Cc5ccccc5O4)c(F)c3)c2)[C@H](O)[C@@H](O)[C@@H]1O (stereo partly drawn) [Compound I-12, (2S,3R,4R,5S,6R)-2-(4-chloro-3-(4-((2,3-dihydrobenzofuran-2-yl)methoxy)-3-fluorobenzyl)phenyl)-6-(hydroxymethyl)tetrahydro-2H-pyran-3,4,5-triol] | 11 |  |  | 1070
CC1(COc2ccc(Cc3cc([C@@H]4O[C@H](CO)[C@@H](O)[C@H](O)[C@H]4O)ccc3Cl)cc2)OCc2ccccc21 (single isomer, unassigned) [Compound I-116] | 3.9 |  |  | 1310
OC[C@H]1O[C@@H](c2ccc(Cl)c(Cc3ccc(O[C@H]4CCOC4)cc3)c2)[C@H](O)[C@@H](O)[C@@H]1O [A, Empagliflozin, reference compound] | 6.6 |  | 1536.5 mg/200 mg body weight/24 h | 
Cc1ccc([C@@H]2O[C@H](CO)[C@@H](O)[C@H](O)[C@H]2O)cc1Cc1ccc(-c2ccc(F)cc2)s1 [B, Canagliflozin, reference compound] | 4.6 |  |  | 287
N#Cc1ccc([C@@H]2O[C@H](CO)[C@@H](O)[C@H](O)[C@H]2O)cc1Cc1ccc(OCC2Cc3ccccc3O2)cc1 (stereo partly drawn) [Compound I-28, 2-(4-((2,3-dihydrobenzofuran-2-yl)methoxy)benzyl)-4-((2S,3R,4R,5S,6R)-3,4,5-trihydroxy-6-(hydroxymethyl)tetrahydro-2H-pyran-2-yl)benzonitrile] | > 2000 |  |  | 41400
Cc1ccc([C@@H]2O[C@H](CO)[C@@H](O)[C@H](O)[C@H]2O)cc1Cc1ccc(OCC2OCc3ccccc32)cc1 (stereo partly drawn) [Compound I-43, (2S,3R,4R,5S,6R)-2-(3-(4-((1,3-dihydroisobenzofuran-1-yl)methoxy)benzyl)-4-methylphenyl)-6-(hydroxymethyl)tetrahydro-2H-pyran-3,4,5-triol] | 1.7 |  |  | 322
OC[C@H]1O[C@@H](c2ccc(Cl)c(Cc3ccc(OCC4Cc5cc(F)ccc5O4)cc3)c2)[C@H](O)[C@@H](O)[C@@H]1O (stereo partly drawn) [Compound I-32, (2S,3R,4R,5S,6R)-2-(4-chloro-3-(4-((5-fluoro-2,3-dihydrobenzofuran-2-yl)methoxy)benzyl)phenyl)-6-(hydroxymethyl)tetrahydro-2H-pyran-3,4,5-triol] | 6.7 |  |  | 472
